Assay results from patent publication US10195185B2, “3-(1H-imidazo[4,5-C]pyridin-2-yl)-1H-pyrazolo[4,3-B]pyridines and therapeutic uses thereof” (Samumed, LLC, priority 2015, dated 2019).

Columns and labels:
[1] = tested on: Primary human fibroblasts derived from IPF patients (LL29 cells) treated with TGF-β1; assay: Inhibition of the fibrotic process: αSMA staining in TGF-β1 treated fibroblasts; assay type: cell-based; conditions: Fibroblast, 96 h, LL29 fibroblasts treated with TGF-β1, 4 days; for inhibition at 10 µM: read-out: percent inhibition in brackets beside EC50 >10 μM
In short: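 Compound dilutions from 10 μM down to […] are dispensed, LL29 cells added in F12 with 1% FBS, and TGF-β1 (20 ng/mL) follows after 1 h. After 4 days, live-cell αSMA positivity is measured by immunofluorescence and normalized to TGF-β1-treated wells to derive EC50.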

[2] = tested on: primary human mesenchymal stem cells (hMSCs); assay: Induction of chondrogenesis in hMSCs (nodule area, Rhodamine B / Nile Red); assay type: cell-based; conditions: TGF-β3 as positive control; for Emax: read-out: Max. Activity as % TGF-β3 activity; for EC50: concentration required to induce 50% levels of chondrogenesis, read-out: Conc (nM) of 50% TGF-β3 activity
Description: Representative compounds were screened using primary human mesenchymal stem cells (hMSCs) to determine their ability to induce chondrogenesis (process by which cartilage is developed).
Primary human mesenchymal stem cells (hMSCs) were purchased from Lonza (Walkersville, Md.) and expanded in Mesenchymal Stem Cell Growth Media (Lonza). Cells between passage 3 and 6 were used for the experiments.
Each compound was dissolved in DMSO as a 10 mM stock and used to prepare compound source plates. For the 96 well assay, serial dilution (1:3, 6-point dose-response curves from 2700 nM to 10 nM) and compound transfer was performed using the ECHO 550 (Labcyte, Sunnyvale, Calif.) into 96-well clear bottom assay plates (Greiner Bio-One) with appropriate DMSO backfill for a final DMSO concentration of 0.03%. hMSCs were plated at 20,000 cells/well in 250 μL/well Incomplete Chondrogenic Induction Medium (Lonza; DMEM, dexamethasone, ascorbate, insulin-transferrin-selenium [ITS supplement], gentamycin-amphotericin [GA-1000], sodium pyruvate, proline and L-glutamine). TGF-β3 (10 ng/mL) was used as a positive control for differentiation while negative control wells were treated with 75 nL DMSO for normalization and calculating EC50 values. For the 384 well assay, serial dilution (1:3, 8-point dose-response curves from 5000 nM to 2.2 nM) and compound transfer was performed using the ECHO 550 (Labcyte, Sunnyvale, Calif.) into 384-well clear bottom assay plates (Greiner Bio-One) with appropriate DMSO backfill for a final DMSO concentration of 0.03%. hMSCs were plated at 8,000 cells/well in 80 μL/well Incomplete Chondrogenic Induction Medium (Lonza; DMEM, dexamethasone, ascorbate, insulin-transferrin-selenium [ITS supplement], gentamycin-amphotericin [GA-1000], sodium pyruvate, proline and L-glutamine). TGF-β3 (10 ng/mL) was used as a positive control for differentiation while negative control wells were treated with 25 nL DMSO for normalization and calculating EC50 values. Cells were incubated at 37° C. and 5% CO2 for 6 days. To image chondrogenic nodules, the cells were fixed using 4% formaldehyde (Electron Microscopy Sciences), and stained with 2 μg/mL Rhodamine B (Sigma-Aldrich) and 20 μM Nile Red (Sigma-Aldrich) [Johnson K., et. al, A Stem Cell-Based Approach to Cartilage Repair, Science, (2012), 336(6082), 717-721]. The nodules imaged (25 images per well for 96 well plates and 9 images per well for 384 well plates at 10× magnification) by excitation at 531 nm and emission at 625 nm and quantified using the CellInsight CX5 (Thermo Scientific). Area of nodules in each well was normalized to the average of 3 DMSO treated wells on the same plate using Excel (Microsoft Inc.). The normalized averages (fold change over DMSO) of 2 or 3 replicate wells for each compound concentration were calculated. Due to solubility limitations of some of the compounds, curve fitting was incomplete leading to inaccurate EC50 determinations.
Using TGF-β3 as a positive control, the concentration of representative compounds required to induce 50% levels of chondrogenesis is reported. In addition, the maximum activity of each compound and the respective dose that each compound reached maximum chondrogenesis activity is reported.

| EC50 [2] [nM] | Compound | EC50 [1] [nM] | Emax [2] [%] | inhibition at 10 µM [1] [%] |
| --- | --- | --- | --- | --- |
|  | CN(C)Cc1cncc(-c2ccc3[nH]nc(-c4nc5c(N6CCCCC6)nccc5[nH]4)c3n2)c1 [Compound 181, N,N-Dimethyl-1-(5-(3-(4-(piperidin-1-yl)-1H-imidazo[4,5-c]pyridin-2-yl)-1H-pyrazolo [4,3-b]pyridin-5-yl)pyridin-3-yl)methanamine] | 4050 | 43 |  |
| 10 | CC(C)(C)C(=O)Nc1cncc(-c2ccc3[nH]nc(-c4nc5c(-c6ccc(F)cc6)nccc5[nH]4)c3n2)c1 [Compound 36, N-(5-(3-(4-(4-Fluorophenyl)-1H-imidazo[4,5-c]pyridin-2-yl)-1H-pyrazolo [4,3-b]pyridin-5-yl)pyridin-3-yl)pivalamide] | 1280 | 56 |  |
| 10 | CCCCC(=O)Nc1cncc(-c2ccc3[nH]nc(-c4nc5c(-c6ccoc6)nccc5[nH]4)c3n2)c1 [Compound 327, N-(5-(3-(4-(Furan-3-yl)-1H-imidazo[4,5-c]pyridin-2-yl)-1H-pyrazolo[4,3-b]pyridin-5-yl)pyridin-3-yl)pentanamide] | > 10000 | 91 | 0 |
| 30 | c1cncc(-c2ccc3[nH]nc(-c4nc5cnccc5[nH]4)c3n2)c1 [Compound 256, 3-(1H-Imidazo[4,5-c]pyridin-2-yl)-5-(pyridin-3-yl)-1H-pyrazolo[4,3-b]pyridine] | > 10000 | 55 | 0 |
| 10 | CC(C)Nc1cncc(-c2ccc3[nH]nc(-c4nc5c(-c6cccnc6)nccc5[nH]4)c3n2)c1 [Compound 96, N-Isopropyl-5-(3-(4-(pyridin-3-yl)-1H-imidazo[4,5-c]pyridin-2-yl)-1H-pyrazolo[4,3-b]pyridin-5-yl)pyridin-3-amine] | 1250 | 54 |  |
| 30 | COc1cccc(-c2nccc3[nH]c(-c4n[nH]c5ccc(-c6cccnc6)nc45)nc23)c1 [Compound 994, 3-(4-(3-Methoxyphenyl)-1H-imidazo[4,5-c]pyridin-2-yl)-5-(pyridin-3-yl)-1H-pyrazolo[4,3-b]pyridine] | 4710 | 51 |  |
|  | COc1cccc(-c2nccc3[nH]c(-c4n[nH]c5ccc(-c6cncc(NC(=O)Cc7ccccc7)c6)nc45)nc23)c1 [Compound 1000, N-(5-(3-(4-(3-methoxyphenyl)-1H-imidazo[4,5-c]pyridin-2-yl)-1H-pyrazolo [4,3-b]pyridin-5-yl)pyridin-3-yl)-2-phenylacetamide] | 2550 | 41 |  |
| 10 | CC(C)(C)C(=O)Nc1cncc(-c2ccc3[nH]nc(-c4nc5c(-c6ccc(Cl)s6)nccc5[nH]4)c3n2)c1 [Compound 1043, N-(5-(3-(4-(5-Chlorothiophen-2-yl)-1H-imidazo[4,5-c]pyridin-2-yl)-1H-pyrazolo[4,3-b]pyridin-5-yl)pyridin-3-yl)pivalamide] | > 10000 | 67 | 22 |
|  | CN(C)c1cncc(-c2ccc3[nH]nc(-c4nc5c(N6CCCCC6)nccc5[nH]4)c3n2)c1 [Compound 175, N,N-Dimethyl-5-(3-(4-(piperidin-1-yl)-1H-imidazo[4,5-c]pyridin-2-yl)-1H-pyrazolo [4,3-b]pyridin-5-yl)pyridin-3-amine] | 2400 | 48 |  |
|  | Fc1ccc(-c2nccc3[nH]c(-c4n[nH]c5ccc(-c6cncc(CN7CCCC7)c6)nc45)nc23)cc1 [Compound 42, 3-(4-(4-Fluorophenyl)-1H-imidazo[4,5-c]pyridin-2-yl)-5-(5-(pyrrolidin-1-ylmethyl)pyridin-3-yl)-1H-pyrazolo[4,3-b]pyridine] | 2870 | 39 |  |
| 7 | CN(C)CC(=O)Nc1cncc(-c2ccc3[nH]nc(-c4nc5c(-c6cccc(F)c6)nccc5[nH]4)c3n2)c1 [Compound 969, 2-(Dimethylamino)-N-(5-(3-(4-(3-fluorophenyl)-1H-imidazo[4,5-c]pyridin-2-yl)-1H-pyrazolo[4,3-b]pyridin-5-yl)pyridin-3-yl)acetamide] | 1630 | 63 |  |
| 900 | CC(C)C(=O)Nc1cncc(-c2ccc3[nH]nc(-c4nc5c(N6CCN(C)CC6)nccc5[nH]4)c3n2)c1 [Compound 233, N-(5-(3-(4-(4-Methylpiperazin-1-yl)-1H-imidazo[4,5-c]pyridin-2-yl)-1H-pyrazolo[4,3-b]pyridin-5-yl)pyridin-3-yl)isobutyramide] | > 10000 | 64 | 2.5 |
| 10 | Clc1ccc(-c2nccc3[nH]c(-c4n[nH]c5ccc(-c6cncc(CN7CCCC7)c6)nc45)nc23)s1 [Compound 1049, 3-(4-(5-Chlorothiophen-2-yl)-1H-imidazo[4,5-c]pyridin-2-yl)-5-(5-(pyrrolidin-1-ylmethyl)pyridin-3-yl)-1H-pyrazolo [4,3-b]pyridine] | 1190 | 59 |  |
| 100 | FC1(F)CCN(Cc2cncc(-c3ccc4[nH]nc(-c5nc6c(-c7ccsc7)nccc6[nH]5)c4n3)c2)C1 [Compound 306, 5-(5-((3,3-difluoropyrrolidin-1-yl)methyl)pyridin-3-yl)-3-(4-(thiophen-3-yl)-1H-imidazo[4,5-c]pyridin-2-yl)-1H-pyrazolo[4,3-b]pyridine] | 1240 | 53 |  |
|  | Cc1ncc(-c2ccc3[nH]nc(-c4nc5c(-c6cccc(F)c6)nccc5[nH]4)c3n2)s1 [Compound 1126, 5-(3-(4-(3-Fluorophenyl)-1H-imidazo[4,5-c]pyridin-2-yl)-1H-pyrazolo[4,3-b]pyridin-5-yl)-2-methylthiazole] | 203 | 43 |  |
| 900 | Fc1ccc(-c2nccc3[nH]c(-c4n[nH]c5ccc(-c6cncnc6)nc45)nc23)cc1 [Compound 55, 3-(4-(4-Fluorophenyl)-1H-imidazo[4,5-c]pyridin-2-yl)-5-(pyrimidin-5-yl)-1H-pyrazolo[4,3-b]pyridine] | 2180 | 139 |  |
|  | Cc1cn(-c2nccc3[nH]c(-c4n[nH]c5ccc(-c6cncc(CN7CCCC7)c6)nc45)nc23)cn1 [Compound 210, 3-(4-(4-Methyl-1H-imidazol-1-yl)-1H-imidazo[4,5-c]pyridin-2-yl)-5-(5-(pyrrolidin-1-ylmethyl)pyridin-3-yl)-1H-pyrazolo [4,3-b]pyridine] | > 10000 | 50 | 2.9 |
|  | O=C(Nc1cncc(-c2ccc3[nH]nc(-c4nc5c(-c6ccc(F)cc6)nccc5[nH]4)c3n2)c1)C1CCC1 [Compound 49, N-(5-(3-(4-(4-Fluorophenyl)-1H-imidazo[4,5-c]pyridin-2-yl)-1H-pyrazolo [4,3-b]pyridin-5-yl)pyridin-3-yl)cyclobutanecarboxamide] | > 10000 | 45 | 7.5 |
| 5000 | CCC(=O)Nc1cncc(-c2ccc3[nH]nc(-c4nc5c(-c6cccc(F)c6)nccc5[nH]4)c3n2)c1 [Compound 1, N-(5-(3-(4-(3-Fluorophenyl)-1H-imidazo[4,5-c]pyridin-2-yl)-1H-pyrazolo [4,3-b]pyridin-5-yl)pyridin-3-yl)propionamide] | > 10000 | 95 | 0 |
